The source of these data is patent publication US20240067632A1, “WEE1 Degrading Compounds and Uses Thereof” (Bristol-Myers Squibb Company, priority 2022, published 2024).

Each structure is given as a SMILES string. Where two headings read alike, the source gives them in different places.

One experiment addresses T1, WEE1 (Homo sapiens, UniProt P30291+Q96SW2).
T1 construct: C-terminal ePL-tagged (DiscoverX, Fremont, CA) full-length WEE1 expression construct; expressed in transfected cells; host or cells: LentiX-HEK293T (Invitrogen), lentiviral transduction; co-expressing GSPT1-GN (G576N, lacking the first 158 amino acids)
Description: WEE1-ePL degradation assay (LentiX-WEE1-ePL-GSPT1-ND cells, InCELL Hunter luminescence, 4 h). Format: cell-based. Conditions: 293T-LentiX WEE1-ePL cells; for DC50: read-out: 293T-LentiX WEE1-ePL Degradation 4 hr (EC50). The procedure: To generate LentiX-WEE1-ePL-GSPT1-ND cells for the WEE1 degradation assay, LentiX-HEK293T (Invitrogen) were transduced by lentivirus with a C-terminal ePL-tagged (DiscoverX, Fremont, CA) full-length WEE1 expression construct. […] Cells were selected and maintained in complete DMEM media (DMEM, 10% Heat Inactivated FBS, 400 μg/mL Geneticin, and 1 μg/mL puromycin at 37 C and 5% CO2). Cells were passaged every 3-4 days by reseeding 1×10^6 cells in a T150 flask.
Cells were dispensed into 384-well white plates (Corning #3570, NY) that were pre-spotted with compounds using an acoustic dispenser (Echo acoustic transfer system, Beckman Coulter Life Sciences, Carlsbad, CA) as a 10-point dose-response curve with a 3-fold dilution starting at either 1 uM or 10 uM and including a DMSO control. Twenty-five microliters of media containing 2500 cells for LentiX-oeWEE1-ePL was dispensed per well. Assay plates were incubated at 37° C. with 5% CO2 for four hours (WEE1) After incubation, 25 μL of the InCELL Hunter™ Detection Reagent Working Solution (DiscoverX, Fremont, CA) was added to each well and incubated at room temperature for 30 minutes protected from light. After 30 minutes, luminescence was read on a PHERAstar luminometer (Cary, NC).
To determine the half-maximal effective concentration (EC50) values for WEE1-ePL degradation, a four parameter logistic model was used: (Sigmoidal Dose-Response Model) (FIT=(A+((B−A)/1+((C/x)^D)))) where C is the inflection point (EC50), D is the Hill slope, and A and B are the low and high limits of the fit respectively). The lower limit of the fit (value A) is referred to as Ymin. […] The maximum limit constraint, Ymax, is similarly derived using DMSO control. The curves were processed and evaluated using Activity Base (IDBS, Alameda, CA).

The test system of the next experiment is MKN45 cells. Description: MKN45 cell proliferation assay (Cell-Titer-Glo, 120 h). Format: cell-based. The settings on record: for EC50: Homo sapiens, MKN-45, 120 h, Cell-Titer-Glo, read-out: MKN45 Cell Prolif. 120 hr (EC50); for MKN45 Cell Prolif. 120 hr (Ymin-Obs): minimal percent of DMSO control observed in the concentrations tested. The procedure:
MKN45 cells were obtained from Celgene internal cell banks and cultured in RPMI complete media (RPMI-1640, 1× Penicillin/Streptomycin, 1× glutamine, 1× Sodium Pyruvate, Non-essential Amino Acids, 10% Fetal Bovine serum, all component from Thermo-Fisher). Compounds were dispensed into 384-well plates using an HP DE300 compound printer in triplicate with 8 compounds on each plate. For each compound, a 10-point dose response was printed at half-log dilutions starting at either 1 uM or 10 uM. The DMSO concentration was kept constant for a final assay concentration of 0.1% per well assuming 50 ul final media volume. Compound plates were sealed and frozen at −20 C until use.
For each assay batch, compound plates were thawed and allowed to reach room temperature, and cells were seeded at 400 cells per well in 50 ul complete RPMI media. After 120 hours of incubation at 37 C and 5% CO2, cells were lysed by addition of 25 μL of Cell-Titer-Glo Reagent (Promega Corporation, Madison, WI), as per manufacturer's instructions, protected from light, shaken for 45 minutes, and total luminescence read by a Perkin Elmer Envision plate reader. Total luminescence signal is linearly correlated with cell number remaining in the well.
Luminescence data was processed per plate by subtracting reagent-only “blank” well luminescence from all measured values and calculating a percent of DMSO control value for each treatment well. Then, to determine the half-maximal effective concentration (EC50) values for cell growth inhibition, a four parameter logistic model was fit to the data for each DMSO-normalized compound: Sigmoidal Dose-Response Model: (FIT=(A+((B−A)/1+((C/x)^D)))) where C is the inflection point (EC50), D is the Hill slope, and A and B are the low and high limits of the fit respectively. The lower limit of the fit (value A) is referred to as Ymin-calculated. The minimal percent of DMSO control that is observed in the concentrations tested for each compound is labeled as “Ymin-obs”, and was recorded and reported in the tables. Sigmoidal fit curves were processed and evaluated using Activity Base (IDBS, Alameda, CA).

Setting [1] is: lower limit of the fit (0 = luciferase inhibitor, Ymax = DMSO control).
The mark [2] stands for this setting: lower limit of the fit (Ymin=0 luciferase inhibitor, Ymax DMSO control).

In the case of `O=C1CCC(N2Cc3cc(O[C@H]4CCN(Cc5cccc6ncccc56)C4)ccc3C2=O)C(=O)N1` (stereo partly drawn) [3-(1-oxo-5-{[(3S)-1-[(quinolin-5-yl)methyl]pyrrolidin-3-yl]oxy}-2,3-dihydro-1H-isoindol-2-yl)piperidine-2,6-dione], the “293T-LentiX WEE1-ePL Degradation 4 hr (Ymin)” value on WEE1 (setting [1]) was 32.69. Moreover, the DC50 on WEE1 was 14.6 nM. The EC50 in the experiment with MKN45 cells (growth inhibition) came out at 104 nM. Also, in the experiment with MKN45 cells, the “MKN45 Cell Prolif. 120 hr (Ymin-Obs)” value amounted to 19.
`O=C1CCC(N2Cc3cc(O[C@H]4CCN(Cc5cc6ccc(C7CCOCC7)cc6cn5)C4)ccc3C2=O)C(=O)N1` (stereo partly drawn) [3-(5-{[(3S)-1-{[7-(oxan-4-yl)isoquinolin-3-yl]methyl}pyrrolidin-3-yl]oxy}-1-oxo-2,3-dihydro-1H-isoindol-2-yl)piperidine-2,6-dione]: the “293T-LentiX WEE1-ePL Degradation 4 hr (Ymin)” value on WEE1 (setting [1]) stood at 29.75. The DC50 on WEE1 is 1.46 nM. Also, the EC50 with MKN45 cells (growth inhibition) was 2.09 nM. In addition, the “MKN45 Cell Prolif. 120 hr (Ymin-Obs)” value in the experiment with MKN45 cells is on record as 8.822.
Taken in the same sequence, the figures for `O=C1CCC(N2Cc3cc(O[C@H]4CCN(Cc5ccc6nc(NC7CCOCC7)ccc6c5)C4)ccc3C2=O)C(=O)N1` (stereo partly drawn) [3-(5-{[(3S)-1-({2-[(oxan-4-yl)amino]quinolin-6-yl}methyl)pyrrolidin-3-yl]oxy}-1-oxo-2,3-dihydro-1H-isoindol-2-yl)piperidine-2,6-dione] were 37, 10.6 nM, 4.27 nM and 7.78.
Regarding `C[C@@H]1CN(Cc2cc(F)c3nc([C@@H]4CCOC4)ccc3c2)C[C@H]1Oc1ccc2c(c1)CN([C@H]1CCC(=O)NC1=O)C2=O` [(3S)-3-(5-{[(3S,4R)-1-({8-fluoro-2-[(3S)-oxolan-3-yl]quinolin-6-yl}methyl)-4-methylpyrrolidin-3-yl]oxy}-1-oxo-2,3-dihydro-1H-isoindol-2-yl)piperidine-2,6-dione], the “293T-LentiX WEE1-ePL Degradation 4 hr (Ymin)” value at WEE1 (setting [2]) was determined as 26.17. Moreover, the DC50 on WEE1 came to 1.41 nM. Further, in the experiment with MKN45 cells, the EC50 came out at 1.13 nM and the “MKN45 Cell Prolif. 120 hr (Ymin-Obs)” value worked out at 7.979.
`O=C1CC[C@H](N2Cc3cc(O[C@H]4CCN(Cc5ccc6nc(N7CCCC7=O)ccc6c5)C4)ccc3C2=O)C(=O)N1` [(3S)-3-(1-oxo-5-{[(3S)-1-{[2-(2-oxopyrrolidin-1-yl)quinolin-6-yl]methyl}pyrrolidin-3-yl]oxy}-2,3-dihydro-1H-isoindol-2-yl)piperidine-2,6-dione]: the “293T-LentiX WEE1-ePL Degradation 4 hr (Ymin)” value at WEE1 (setting [1]) is 40. Also, the DC50 at WEE1 stood at 1.51 nM. Also, in the experiment with MKN45 cells (growth inhibition), the EC50 is 2.82 nM. The “MKN45 Cell Prolif. 120 hr (Ymin-Obs)” value in the experiment with MKN45 cells is on record as 8.56.
As to `O=C1CC[C@H](N2Cc3cc(O[C@H]4CCN(Cc5cc(F)c6nc(N7CCOCC7)ccc6c5)C4)ccc3C2=O)C(=O)N1` [(3S)-3-(5-{[(3S)-1-{[8-fluoro-2-(morpholin-4-yl)quinolin-6-yl]methyl}pyrrolidin-3-yl]oxy}-1-oxo-2,3-dihydro-1H-isoindol-2-yl)piperidine-2,6-dione], in the experiment with MKN45 cells, the EC50 came to 7.19 nM and the “MKN45 Cell Prolif. 120 hr (Ymin-Obs)” value worked out at 12.7.
For `O=C1CC[C@H](N2Cc3cc(O[C@H]4CCN(Cc5ccc6nc(C7CCOCC7)ncc6c5F)C4)ccc3C2=O)C(=O)N1` [(3S)-3-(5-{[(3S)-1-{[5-fluoro-2-(oxan-4-yl)quinazolin-6-yl]methyl}pyrrolidin-3-yl]oxy}-1-oxo-2,3-dihydro-1H-isoindol-2-yl)piperidine-2,6-dione] the same measures were 17.1 nM and 9.88.
Taken in the same sequence, the figures for `COC[C@H]1CCC[C@H]1c1ccc2cc(CN3CC[C@H](Oc4ccc5c(c4)CN(C4CCC(=O)NC4=O)C5=O)C3)ccc2n1` (stereo partly drawn) [3-(5-{[(3S)-1-({2-[(1R,2S)-2-(methoxymethyl)cyclopentyl]quinolin-6-yl}methyl)pyrrolidin-3-yl]oxy}-1-oxo-2,3-dihydro-1H-isoindol-2-yl)piperidine-2,6-dione] were 12.3 nM and 15.33.
For `COC[C@@H]1CCC[C@H]1c1ccc2cc(CN3CC[C@H](Oc4ccc5c(c4)CN(C4CCC(=O)NC4=O)C5=O)C3)ccc2n1` (stereo partly drawn) [3-(5-{[(3S)-1-({2-[(1R,2R)-2-(methoxymethyl)cyclopentyl]quinolin-6-yl}methyl)pyrrolidin-3-yl]oxy}-1-oxo-2,3-dihydro-1H-isoindol-2-yl)piperidine-2,6-dione] the same measures were 16.6 nM and 12.33.
Regarding `O=C1CC[C@H](N2Cc3cc(O[C@@H]4CN(Cc5ccc6nc(N7CCOCC7)ncc6c5)CC4(F)F)ccc3C2=O)C(=O)N1` [(3S)-3-(5-{[(3R)-4,4-difluoro-1-{[2-(morpholin-4-yl)quinazolin-6-yl]methyl}pyrrolidin-3-yl]oxy}-1-oxo-2,3-dihydro-1H-isoindol-2-yl)piperidine-2,6-dione], in the experiment with MKN45 cells, the EC50 came out at 17.8 nM and the “MKN45 Cell Prolif. 120 hr (Ymin-Obs)” value was found to be 10.03.
Taken in the same sequence, the figures for `COC[C@@H]1CN(Cc2ccc3nc(C4CCOCC4)ccc3c2)C[C@H]1Oc1ccc2c(c1)CN([C@H]1CCC(=O)NC1=O)C2=O` [(3S)-3-(5-{[(3S,4S)-4-(methoxymethyl)-1-{[2-(oxan-4-yl)quinolin-6-yl]methyl}pyrrolidin-3-yl]oxy}-1-oxo-2,3-dihydro-1H-isoindol-2-yl)piperidine-2,6-dione] were 0.728 nM and 9.194.
`O=C1CCC(N2Cc3cc(O[C@@H]4CCN(Cc5c[nH]c6cnccc56)C4)ccc3C2=O)C(=O)N1` (stereo partly drawn) [3-(1-oxo-5-{[(3R)-1-({1H-pyrrolo[2,3-c]pyridin-3-yl}methyl)pyrrolidin-3-yl]oxy}-2,3-dihydro-1H-isoindol-2-yl)piperidine-2,6-dione]: on WEE1 (setting [2]), the “293T-LentiX WEE1-ePL Degradation 4 hr (Ymin)” value was found to be 93.39.
With `O=C1CCC(N2Cc3cc(O[C@@H]4CCN(Cc5cnc6ccccc6c5)C4)ccc3C2=O)C(=O)N1` (stereo partly drawn) [3-(1-oxo-5-{[(3R)-1-[(quinolin-3-yl)methyl]pyrrolidin-3-yl]oxy}-2,3-dihydro-1H-isoindol-2-yl)piperidine-2,6-dione], the “293T-LentiX WEE1-ePL Degradation 4 hr (Ymin)” value on WEE1 (setting [2]) was determined as 83.91.
The same measure, in the same setting: the value for `Cc1nc(C)c(CN2CC[C@@H](Oc3ccc4c(c3)CN(C3CCC(=O)NC3=O)C4=O)C2)s1` (stereo partly drawn) [3-(5-{[(3R)-1-[(2,4-dimethyl-1,3-thiazol-5-yl)methyl]pyrrolidin-3-yl]oxy}-1-oxo-2,3-dihydro-1H-isoindol-2-yl)piperidine-2,6-dione] was 94.2.
`Cc1nccc(CN2CC[C@H](Oc3ccc4c(c3)CN(C3CCC(=O)NC3=O)C4=O)C2)c1C` (stereo partly drawn) [3-(5-{[(3S)-1-[(2,3-dimethylpyridin-4-yl)methyl]pyrrolidin-3-yl]oxy}-1-oxo-2,3-dihydro-1H-isoindol-2-yl)piperidine-2,6-dione]: the “293T-LentiX WEE1-ePL Degradation 4 hr (Ymin)” value at WEE1 (setting [1]) is listed as 43.42. Also, the DC50 on WEE1 stood at 54.5 nM.

What is called EC50 is the concentration giving half of the maximal effect.
